From ChEMBL document CHEMBL4303773 (Nature, 2020)
The source made the active and inactive calls. The rule behind the calls is not given here.

How the values were obtained:
Vero C1008 [1] = assay: (§1) Cytotoxicity of compound against Vero E6 cells by MTT assay.; settings: chlorocebus sabaeus, vero c1008
[2] = as §1; settings: chlorocebus sabaeus, Vero E6 cells
Vero C1008 [3] = assay: AUC (cytotoxicity %) of compound against Vero E6 cells by MTT assay.; assay type: toxicity, cell-based; settings: chlorocebus sabaeus
SARS-CoV-2 [4] = settings: Chlorocebus sabaeus; Vero C1008
SARS-CoV-2 [5] = assay: microbe, parasite or virus in culture; assay type: functional, organism-based, Chlorocebus sabaeus; settings: Severe acute respiratory syndrome coronavirus 2, Vero C1008, 48 h

Row | Compound | pCC50 (Vero C1008 [1]) | CC50 [2] | AUC cytotoxicity (Vero C1008 [3]) | AUC (SARS-CoV-2 [4]) | IC50 (SARS-CoV-2 [5])
1 | c1ccc(CNc2nc(NCc3ccccc3)c3ccccc3n2)cc1 | 5.19 | – | – | – | –
2 | Cc1sc2c(c1C)C(c1ccc(Cl)cc1)=N[C@@H](CC(=O)OC(C)(C)C)c1nnc(C)n1-2 | – | ~66.8 nM | – | – | –
3 | Cc1cc(OCCN2CCOCC2)nn1-c1ccc2ccccc2c1 | – | ~7620 nM (inactive) | – | – | –
4 | COC(=O)C1(c2ccc(C)cc2)CC1CN1CCC(O)(c2ccccc2)CC1 (stereo not drawn) | – | ~4000 nM (inactive) | – | – | –
5 | O=C(O)/C(Cc1ccccc1[N+](=O)[O-])=N\Nc1nc(-c2ccc(Cl)c(Cl)c2)cs1 | 4.32 | – | – | – | –
6 | COc1cccc2c(NCc3ccccc3)nc(-n3c(N)nc4ccccc43)nc12 | 2.936 | – | 175.5 | 223 | –
7 | COc1ccc(-c2sc(NC(=O)C(C)(C)C)nc2C)cc1S(=O)(=O)Nc1ccc(O)cc1 | 5.25 | – | – | – | –
8 | O=C(c1ccc(-n2nnc3cccnc32)cc1)N(c1ncccc1Cl)[C@@H]1CCCNC1 | 5.61 | – | – | – | 7590 nM
9 | C[C@@H](C1CCCCC1)n1c(-c2cc3c(cc2Br)OCO3)nc2cc(C(=O)Nc3ccc(C#N)cc3)ccc21 | – | ~102 nM (inactive) | 261.6 | 227 | –
10 | Cc1ncsc1-c1ccc(CNC(=O)[C@@H]2C[C@@H](O)CN2C(=O)[C@@H](NC(=O)COCCOCCOCCNC(=O)C[C@@H]2N=C(c3ccc(Cl)cc3)c3c(sc(C)c3C)-n3c(C)nnc32)C(C)(C)C)cc1 | – | 300 nM | – | – | –
11 | COc1cc(OC)c2c(=O)[nH]c(-c3cc(C)c(OCCO)c(C)c3)nc2c1 [APABETALONE] | – | ~207 nM (inactive) | 281.9 | 293 | –
12 | O=c1[nH]c(=O)n([C@H]2C[C@H](O)[C@@H](CO)O2)cc1/C=C/Br [BRIVUDINE] | – | – | 244.3 | 255 | –
13 | CN(C)C(=O)COC(=O)Cc1ccc(OC(=O)c2ccc(NC(=N)N)cc2)cc1 [CAMOSTAT] | – | ~3630 nM (inactive) | 276.3 | 251 | –
14 | C[C@H](CS)C(=O)N1CCC[C@H]1C(=O)O [CAPTOPRIL] | – | ~1230 nM (inactive) | 271.9 | 276 | –
15 | Cc1cc2c(C(N)=O)cccc2n1-c1nc2c(c(NCc3ccccc3)n1)COCC2 [CB-5083] | – | – | – | 280 | –
16 | Clc1ccc(C(OCCN2CCCCC2)c2ccccc2)cc1 (stereo not drawn) [CLOPERASTINE] | – | ~661 nM (active) | – | – | –
17 | COc1cccc2c1C(=O)c1c(O)c3c(c(O)c1C2=O)C[C@@](O)(C(C)=O)C[C@@H]3O[C@H]1C[C@H](N)[C@H](O)[C@H](C)O1 [DAUNORUBICIN] | – | – | – | – | ~214 nM
18 | COc1ccc2c(c1)[C@]13CCCC[C@@H]1[C@H](C2)N(C)CC3 [DEXTROMETHORPHAN] | – | ~871 nM | 296.5 | 271 | –
19 | NCCCC[C@H](N[C@@H](CCc1ccccc1)C(=O)O)C(=O)N1CCC[C@H]1C(=O)O [LISINOPRIL ANHYDROUS] | – | ~8320 nM (inactive) | – | – | –

Row | Compound | pCC50 (Vero C1008 [1]) | CC50 [2] | AUC cytotoxicity (Vero C1008 [3]) | AUC (SARS-CoV-2 [4]) | IC50 (SARS-CoV-2 [5])
20 | CC[C@H](C)C(=O)O[C@H]1C[C@@H](C)C=C2C=C[C@H](C)[C@H](CC[C@@H]3C[C@@H](O)CC(=O)O3)[C@H]21 [LOVASTATIN] | 5.4 | – | – | – | –
21 | CCNC(=O)c1noc(-c2cc(C(C)C)c(O)cc2O)c1-c1ccc(CN2CCOCC2)cc1 [LUMINESPIB] | – | ~67.6 nM | 161.6 | 172 | –
22 | CN(C)C(=N)NC(=N)N [METFORMIN] | – | – | – | 293 | ~2860 nM
23 | N=C(N)Nc1ccc(C(=O)Oc2ccc3cc(C(=N)N)ccc3c2)cc1 [NAFAMOSTAT] | – | – | – | 302 | ~39800 nM (inactive)
24 | CC(=O)Oc1ccccc1C(=O)Nc1ncc([N+](=O)[O-])s1 [NITAZOXANIDE] | – | – | – | – | 2820 nM
25 | Cc1cc2c(s1)Nc1ccccc1N=C2N1CCN(C)CC1 [OLANZAPINE] | – | ~2880 nM (inactive) | – | – | –
26 | CC(C)c1cc(C(=O)N2Cc3ccc(CN4CCN(C)CC4)cc3C2)c(O)cc1O [ONALESPIB] | – | ~1.66 nM | 170.7 | 177 | –
27 | Cc1noc2c1-c1ccccc1C(c1ccc(Cl)cc1)=N[C@H]2CC(N)=O [PELABRESIB] | – | ~42.7 nM (inactive) | 193.2 | 249 | –
28 | CC(C)CC(=O)N[C@H](C(=O)N[C@H](C(=O)N[C@@H](CC(C)C)[C@@H](O)CC(=O)N[C@@H](C)C(=O)N[C@@H](CC(C)C)[C@@H](O)CC(=O)O)C(C)C)C(C)C [PEPSTATIN] | – | ~19.5 nM (inactive) | 262.3 | 313 | –
29 | O=c1[nH]c2ccccc2n1C1CCN(CCCC(c2ccc(F)cc2)c2ccc(F)cc2)CC1 [PIMOZIDE] | 6.13 | – | – | – | –
30 | CCc1ccc(CCOc2ccc(CC3SC(=O)NC3=O)cc2)nc1 (stereo not drawn) [PIOGLITAZONE] | – | ~3630 nM (inactive) | 236.6 | 272 | –
31 | NC(=O)c1ncn([C@@H]2O[C@H](CO)[C@@H](O)[C@H]2O)n1 [RIBAVIRIN] | – | ~21700 nM (inactive) | – | – | –
32 | C[C@@H]1CN(CCCn2c3ccccc3c3ccccc32)C[C@H](C)N1 [RIMCAZOLE] | 2.24 | – | 215.6 | – | –
33 | N#CC[C@H](C1CCCC1)n1cc(-c2ncnc3[nH]ccc23)cn1 [RUXOLITINIB] | – | – | 248.3 | 316 | –
34 | CC(C)n1nc(-c2ccc3oc(N)nc3c2)c2c(N)ncnc21 [SAPANISERTIB] | – | 1.24 nM | 102 | 329 | –
35 | O=C(O)c1ccc2c(c1)nc(Nc1cccc(Cl)c1)c1ccncc12 [SILMITASERTIB] | 5.5 | – | 225.5 | 216 | –
36 | CO[C@H]1C[C@@H]2CC[C@@H](C)[C@@](O)(O2)C(=O)C(=O)N2CCCC[C@H]2C(=O)O[C@H]([C@H](C)C[C@@H]2CC[C@@H](O)[C@H](OC)C2)CC(=O)[C@H](C)/C=C(\C)[C@@H](O)[C@@H](OC)C(=O)[C@H](C)C[C@H](C)/C=C/C=C/C=C/1C [SIROLIMUS] | – | ~0.479 nM | – | – | –
37 | Cc1cc(Nc2cc(N)ncn2)c(=O)n2c1C(=O)NC21CCCCC1 [TOMIVOSERTIB] | 5.26 | – | 245.9 | 231 | –
38 | CCCC(CCC)C(=O)O [VALPROIC ACID] | – | – | 235.1 | 300 | –
